Measured values: article PMC8202924, “Emodepside targets SLO-1 channels of Onchocerca ochengi and induces broad anthelmintic effects in a bovine model of onchocerciasis” (PLoS Pathogens, 2021)

Legend:
[1] = Blood glucose in the main trial, test-strip assay; format: in vivo, zebu (Ngaoundéré Gudali) cattle (B. t. indicus)
Description: Glucose concentrations were measured pre- and post-chemotherapy using venous blood, which was analyzed in a test-strip assay (MediTouch 2 blood glucose monitor, Medisana, Neuss, Germany). Both individual animal and group blood-glucose concentrations were compared with a standard reference range for cattle (45–75 mg/dL [58]). To evaluate group-level effects, 95% confidence intervals (CI) were calculated using the group mean, SD and sample number for each group at each respective timepoint, with changes in blood glucose concentration considered significant if either the lower CI exceeded the upper limit of the standard reference range, or the upper CI was below the lower limit of the standard reference range.

[2] = system: Onchocerca ochengi adult female worms; experiment: MTT assay for metabolic activity of worms from nodules; format: in vivo; conditions: MRSM, 4 mg/kg every other day for 3 days; day 550
Description: Worms from a second unfixed nodule (at the same timepoints listed above) were subjected to a 3-(4,5-dimethylthiazol-2-yl)-2,5-diphenyltetrazolium bromide (MTT) assay for metabolic activity, in which the insoluble formazan product was dissolved in DMSO and quantified colorimetrically at 620 nm in a microplate reader (model LT4500, Labtech, Heathfield, East Sussex, UK). Finally, dermal microfilarial densities were determined by incubation of skin biopsies (in triplicate per animal per timepoint) and normalized to 100 mg skin [59].

[3] = system: Onchocerca ochengi adult worms in nodules; experiment: Histopathology of nodules, worm integrity scores after Striebel; format: in vivo; parameters: key to Cumulative histopathological score, representative section: sum of 5 organ grades: 5 = healthy, 15 = max damage, 16 = debris/none; conditions: MRSM
Text: Nodules for histopathology (n = 72) were collected up to day 290, after which few were available in the melarsomine (MRSM) group. For consistency, nodules were taken from the same three animals in each experimental group at each timepoint. Formalin-fixed nodules were embedded in paraffin, sectioned, and stained with hematoxylin and eosin or Giemsa as previously described or with Lendrum’s carbol chromotrope to specifically stain eosinophils.
Histological sections of nodules were scored by a single observer blinded to treatment group using the form proposed by Striebel, which was developed based on observations of O. volvulus (human) and Onchocerca gibsoni (bovine) nodules. In the current study, O. ochengi nodules were graded by applying a similar system in which the integrity of five structures or organs (cuticle, hypodermis, longitudinal muscle, pseudocoelomic cavity and gut) were classified through microscopical assessment of specific anatomical features (e.g., vacuoles in the hypodermis or host cells visible in the pseudocoelomic cavity) according to the categories in Table A in S1 Text. These grades were used to assign a pathology score for each aspect of parasite anatomy examined. Scores for all five structures or organs were then added together to produce a cumulative overall score, with a minimum score of 5 for parasite sections judged to be healthy across all five structures or organs. Since parasite sections showing extensive damage across all five anatomical regions could score a maximum of 15, sections containing cuticular debris only, or where parasites were unidentifiable in the section, were allocated a total score of 16. Where sections of male worms were present in the nodule these were scored separately to the females. Some sections contained more than one conjoined nodule. In these cases, females were also scored and recorded individually.
The effect of different treatments relative to either (a) no treatment controls or (b) pre-treatment observations of parasite integrity was analyzed using linear mixed effects models with the nonlinear mixed effects model package in R [63, 64]. Overall scores for parasite integrity were modelled as the response variable compared with (a) treatment groups for each timepoint and (b) different timepoints for each respective treatment group. In both cases, animal identity was modelled as a random effect to account for repeat observations taken from the same individual, and results were adjusted using a post-hoc Bonferroni correction for multiple comparisons. Similarly, to assess the effect of different treatments on cellular infiltrates over time, total PMN or eosinophil counts per high-power field and eosinophils as a percentage of the total PMN population were each modelled as […] variables compared with (a) treatment groups for each timepoint and (b) different timepoints for each respective treatment group.

[4] = system: Onchocerca ochengi adult male worms; experiment: Ex vivo visual motility assessment of adult male worms from nodules; format: in vivo; conditions: MRSM, 4 mg/kg every other day for 3 days; day 550; n = 1
Description: Tattooed nodules were removed under local anesthesia (lidocaine-epinephrine) on study days -1, 90, 180–190, 270–290, 360 and 550 in a randomized order as previously described. Nodules were trimmed of excess tissue and up to four nodules per animal were processed separately as follows: (1) stored frozen at –80°C for PK analysis (up to day 14 only); (2) injected in toto with 10% neutral-buffered formalin and stored at 4°C for histopathology (up to day 290 only); or (3) dissected immediately in phosphate-buffered saline to separate adult male and female worms. The anterior end of the female worm (which even in viable specimens is the only motile part of the parasite) was removed from the worm mass and incubated alongside intact male worms for 30 min at 37°C for visual motility assessment on a three-point scale. The remaining portion of the female worm mass was subjectively scored for fecundity on a four-point scale (0, uteri empty or worm structure degraded; 1, low; 2, intermediate; 3, normal) by examining the uterine contents microscopically in situ. This was followed by a fully quantitative embryogram to enumerate oocytes, embryonic stages and intrauterine Mf as described previously.
The second class of PD endpoint considered was worm motility, which was recorded as a three-class categorical variable and quantified here as a fraction of normal worm motility. […]

[5] = 4 mg/kg every other day for 3 days, day 90
[6] = 4 mg/kg every other day for 3 days, day 180
[7] = 4 mg/kg every other day for 3 days, day 290

CC(C)C[C@H]1C(=O)O[C@H](Cc2ccc(N3CCOCC3)cc2)C(=O)N(C)[C@@H](CC(C)C)C(=O)O[C@H](C)C(=O)N(C)[C@@H](CC(C)C)C(=O)O[C@H](Cc2ccc(N3CCOCC3)cc2)C(=O)N(C)[C@@H](CC(C)C)C(=O)O[C@H](C)C(=O)N1C [emodepside]
Blood glucose, group-level 95% CI vs reference range 45–75 mg/dL ([1]; EMO1H, 0.75 mg/kg single dose, at 30 min, 2 and 6 h): significantly above the standard reference range | Blood glucose, group-level 95% CI vs reference range 45–75 mg/dL ([1]; EMO1L, 0.15 mg/kg single dose, at 30 min, 2 and 6 h): significantly above the standard reference range | Blood glucose, group-level 95% CI vs reference range 45–75 mg/dL ([1]; EMO7H, 0.75 mg/kg daily for 7 days, at 2 h): significantly above the standard reference range

NCCS[As](SCCN)c1ccc(Nc2nc(N)nc(N)n2)cc1 [melarsomine]
Blood glucose, group-level 95% CI vs reference range 45–75 mg/dL ([1]; MRSM, 4 mg/kg every other day for 3 days, at 5 and 30 min and 2 h): significantly above the standard reference range | MTT reduction, worms recovered [2]: no intact worms were recovered | Cumulative pathology scores of worm sections ([3]; 4 mg/kg every other day for 3 days, all post-treatment timepoints, P <0.05): significantly higher pathology scores than PCBO | Cumulative histopathological worm score, mixed-effects coefficient (SE) vs placebo [3, 5]: 8.00 (2.01) | Cumulative histopathological worm score, mixed-effects coefficient (SE) vs pre-treatment (day 1) [3, 5]: 9.45 (1.81) | Degenerate nodules (no parasite sections or only cuticular fragments), of three nodules [3, 5]: 1 | Mean histopathological score, cuticle [3, 5]: 3.00 | Mean histopathological score, gut [3, 5]: 3.33 | Mean histopathological score, hypodermis [3, 5]: 3.33 | Mean histopathological score, longitudinal muscle [3, 5]: 2.67 | Mean histopathological score, pseudocoleomic cavity [3, 5]: 3.33 | Cumulative histopathological worm score, mixed-effects coefficient (SE) vs placebo [3, 6]: 7.31 (2.41) | Cumulative histopathological worm score, mixed-effects coefficient (SE) vs pre-treatment (day 1) [3, 6]: 8.12 (1.81) | Degenerate nodules (no parasite sections or only cuticular fragments), of three nodules [3, 6]: 2 | Mean histopathological score, cuticle [3, 6]: 3.33 | Mean histopathological score, gut [3, 6]: 3.00 | Mean histopathological score, hypodermis [3, 6]: 3.00 | Mean histopathological score, longitudinal muscle [3, 6]: 3.00 | Mean histopathological score, pseudocoleomic cavity [3, 6]: 3.33 | Cumulative histopathological worm score, mixed-effects coefficient (SE) vs placebo [3, 7]: 8.67 (2.97) | Cumulative histopathological worm score, mixed-effects coefficient (SE) vs pre-treatment (day 1) [3, 7]: 11.11 (1.81) | Degenerate nodules (no parasite sections or only cuticular fragments), of three nodules [3, 7]: 3 | Mean histopathological score, cuticle [3, 7]: 4.00 | Mean histopathological score, gut [3, 7]: 4.00 | Mean histopathological score, hypodermis [3, 7]: 4.00 | Mean histopathological score, longitudinal muscle [3, 7]: 4.00 | Mean histopathological score, pseudocoleomic cavity [3, 7]: 4.00 | Cumulative histopathological score, representative section ([3]; day 290, animal B0435, degenerate nodule, no parasites): 16 | Fraction of normal adult male worm motility [4]: 0%
